Experimental data published in US11339165B2, “Pyrazolopyrimidines having activity against the respiratory syncytial virus (RSV)” (priority 2017, dated 2022).

What was measured:
in vitro = details: human, TOX HELA CC50 (μM)
Procedure: Black 384-well clear-bottom microtiter plates (Corning, Amsterdam, The Netherlands) were filled via acoustic drop ejection using the echo liquid handler (Labcyte, Sunnyvale, Calif.). 200 nL of compound stock solutions (100% DMSO) were transferred to the assay plates. 9 serial 4-fold dilutions of compound were made, creating per quadrant the same compound concentration. The assay was initiated by adding 10 μL of culture medium to each well (RPMI medium without phenol red, 10% FBS-heat inactivated, 0.04% gentamycin (50 mg/mL). All addition steps are done by using a multidrop dispenser (Thermo Scientific, Erembodegem, Belgium). Next, rgRSV224 virus (MOI=1) diluted in culture medium was added to the plates. rgRSV224 virus is an engineered virus that includes an additional GFP gene (Hallak L K, Spillmann D, Collins P L, Peeples M E. Glycosaminoglycan sulfation requirements for respiratory syncytial virus infection; Journal of virology (2000), 74(22), 10508-13) and was in-licensed from the NIH (Bethesda, Md., USA). Finally, 20 μL of a HeLa cell suspension (3,000 cells/well) were plated. Medium, virus- and mock-infected controls were included in each test. The wells contain 0.05% DMSO per volume. Cells were incubated at 37° C. in a 5% CO2 atmosphere. Three days post-virus exposure, viral replication was quantified by measuring GFP expression in the cells by an in house developed MSM laser microscope (Tibotec, Beerse, Belgium). The EC50 was defined as the 50% inhibitory concentration for GFP expression. In parallel, compounds were incubated for three days in a set of white 384-well microtiter plates (Corning) and the cytotoxicity of compounds in HeLa cells was determined by measuring the ATP content of the cells using the ATPlite kit (Perkin Elmer, Zaventem, Belgium) according to the manufacturer's instructions. The CC50 was defined as the 50% concentration for cytotoxicity.

rgRSV224 virus = assay: Antiviral activity: rgRSV224 (GFP) replication in HeLa cells; type: cell-based, respiratory syncytial virus (RSV); details: human respiratory syncytial virus, HeLa, 72 h, read-out: RSV HELA EC50 (μM), rgRSV224 virus (MOI=1), HeLa cells, GFP expression three days post-virus exposure

SMILES	CC50 at 3 days (in vitro) [µM]	EC50 (rgRSV224 virus) [µM]
C[C@@H]1c2ccccc2CCN1C(=O)c1cc(C2CC2)n2nc(-c3ccc(N4CC[C@H](NCC(F)(F)F)C4)cc3F)cc2n1 [Compound 94, (7-cyclopropyl-2-(2-fluoro-4-((S)-3-((2,2,2-trifluoroethyl)amino)pyrrolidin-1-yl)phenyl)pyrazolo[1,5-a]pyrimidin-5-yl)((R)-1-methyl-3,4-dihydroisoquinolin-2(1H)-yl)methanone]	> 100	0.19
C[C@@H]1c2ccccc2CCN1C(=O)c1cc(C2CC2)n2nc(-c3ccc(N4CC[C@@H](C(C)(C)C(N)=O)C4)cc3F)cc2n1 (single isomer, unassigned) [Compound 28, 2-[(3*S)-1-(4-{7-Cyclopropyl-5-[(1R)-1-methyl-1,2,3,4-tetrahydroisoquinoline-2-carbonyl]pyrazolo[1,5-a]pyrimidin-2-yl}-3-fluorophenyl)pyrrolidin-3-yl]-2-methylpropanamide]	32.2	0.072
C[C@@H]1c2ccccc2CCN1C(=O)c1cc(C2CC2)n2nc(-c3ccc(N4CC[C@@](C)(CC(N)=O)C4)cc3F)cc2n1 (single isomer, unassigned) [Compound 24, 2-[(3*S)-1-(4-{7-Cyclopropyl-5-[(1R)-1-methyl-1,2,3,4-tetrahydroisoquinoline-2-carbonyl]pyrazolo[1,5-a]pyrimidin-2-yl}-3-fluorophenyl)-3-methylpyrrolidin-3-yl]acetamide]	26.4	0.03
C[C@@H]1c2ccccc2CCN1C(=O)c1cc(C2CC2)n2nc(-c3ccc(N4CCC(S(=O)(=O)N(C)C)C4)cc3F)cc2n1 (stereo partly drawn) [Compound 22, 1-(4-{7-Cyclopropyl-5-[(1R)-1-methyl-1,2,3,4-tetrahydroisoquinoline-2-carbonyl]-pyrazolo[1,5-a]pyrimidin-2-yl}-3-fluorophenyl)-N,N-dimethylpyrrolidine-3-sulfonamide]	> 100	0.145
C[C@@H]1c2ccsc2CCN1C(=O)c1cc(C2CC2)n2nc(-c3ccc(N4CC[C@@](C)(C(N)=O)C4)cc3F)cc2n1 (single isomer, unassigned) [Compound 44, (3*R)-1-(4-{7-Cyclopropyl-5-[(4*R)-4-methyl-4,5,6,7-tetrahydro-thieno[3,2-c]pyridine-5-carbonyl]pyrazolo[1,5-a]pyrimidin-2-yl}-3-fluorophenyl)-3-methylpyrrolidine-3-carboxamide]	45.2	0.019
C[C@@H]1c2ccccc2CCN1C(=O)c1cc(-c2ccncc2)n2nc(-c3ccc(N4CC[C@H](C(N)=O)C4)cc3F)cc2n1 [Compound 63, (3S)-1-(3-Fluoro-4-{5-[(1R)-1-methyl-1,2,3,4-tetrahydroisoquinoline-2-carbonyl]-7-(pyridin-4-yl)pyrazolo[1,5-a]pyrimidin-2-yl}phenyl)pyrrolidine-3-carboxamide]	27.2	0.011
CNC(=O)[C@H]1CCN(c2ccc(-c3cc4nc(C(=O)N5CCc6ccccc6[C@H]5C)cc(C5CC5)n4n3)c(F)n2)C1 [Compound 50, (3S)-1-(5-{7-Cyclopropyl-5-[(1R)-1-methyl-1,2,3,4-tetrahydroisoquinoline-2-carbonyl]-pyrazolo[1,5-a]pyrimidin-2-yl}-6-fluoropyridin-2-yl)-N-methylpyrrolidine-3-carboxamide]	35.1	0.031
C[C@@H]1c2ccsc2CCN1C(=O)c1cc(C2CC2)n2nc(-c3ccc(N4CC[C@H](C(C)(C)C(N)=O)C4)cc3F)cc2n1 (single isomer, unassigned) [Compound 29, 2-[(3*R)-1-(4-{7-Cyclopropyl-5-[(4*R)-4-methyl-4,5,6,7-tetrahydro-thieno[3,2-c]pyridine-5-carbonyl]pyrazolo[1,5-a]pyrimidin-2-yl}-3-fluorophenyl)pyrrolidin-3-yl]-2-methyl-propanamide]	43.7	0.045
C[C@@H]1c2ccccc2CCN1C(=O)c1cc(C2CC2)n2nc(-c3c(F)cc(N4CC[C@H](C(N)=O)C4)cc3OCCO)cc2n1 [Compound 106, (S)-1-(4-(7-cyclopropyl-5-((R)-1-methyl-1,2,3,4-tetrahydroisoquinoline-2-carbonyl)pyrazolo[1,5-a]pyrimidin-2-yl)-3-fluoro-5-(2-hydroxyethoxy)phenyl)pyrrolidine-3-carboxamide]	21	0.089
C[C@@H]1c2ccccc2CCN1C(=O)c1cc(C2CC2)n2nc(-c3ccc(N4CC[C@H](c5noc(=O)[nH]5)C4)cc3F)cc2n1 [Compound 4, 3-[(3S)-1-(4-{7-Cyclopropyl-5-[(1R)-1-methyl-1,2,3,4-tetrahydroisoquinoline-2-carbonyl]pyrazolo[1,5-a]pyrimidin-2-yl}-3-fluorophenyl)pyrrolidin-3-yl]-4,5-dihydro-1,2,4-oxadiazol-5-one]	23	0.049
C[C@@H]1c2ccccc2CCN1C(=O)c1cc(C2CC2)n2nc(-c3ccc(N4CC[C@H](C(=O)NS(C)(=O)=O)C4)nc3F)cc2n1 [Compound 51, (3S)-1-(5-{7-Cyclopropyl-5-[(1R)-1-methyl-1,2,3,4-tetrahydroisoquinoline-2-carbonyl]-pyrazolo[1,5-a]pyrimidin-2-yl}-6-fluoropyridin-2-yl)-N-methanesulfonylpyrrolidine-3-carboxamide]	67.9	0.131
CO[C@H]1CN(c2ccc(-c3cc4nc(C(=O)N5CCc6ccccc6[C@H]5C)cc(C5CC5)n4n3)c(F)c2)C[C@@H]1O (stereo in doubt) [Compound 96, (7-cyclopropyl-2-(2-fluoro-4-((trans)-3-hydroxy-4-methoxypyrrolidin-1-yl)phenyl)pyrazolo[1,5-a]pyrimidin-5-yl)((R)-1-methyl-3,4-dihydroisoquinolin-2(1H)-yl)methanone]	22.5	0.05
C[C@@H]1c2ccccc2CCN1C(=O)c1cc(C2CC2)n2nc(-c3ccc(N4CC[C@H](NS(C)(=O)=O)C4)cc3F)cc2n1 [Compound 12, N-[(3S)-1-(4-{7-Cyclopropyl-5-[(1R)-1-methyl-1,2,3,4-tetrahydroisoquinoline-2-carbonyl]pyrazolo[1,5-a]pyrimidin-2-yl}-3-fluorophenyl)pyrrolidin-3-yl]methane-sulfonamide]	> 100	0.041
C[C@@H]1c2ccsc2CCN1C(=O)c1cc(C2CC2)n2nc(-c3ccc(N4CC[C@](C)(C(N)=O)C4)cc3F)cc2n1 (single isomer, unassigned) [Compound 45, (3*S)-1-(4-{7-Cyclopropyl-5-[(4*R)-4-methyl-4,5,6,7-tetrahydro-thieno[3,2-c]pyridine-5-carbonyl]pyrazolo[1,5-a]pyrimidin-2-yl}-3-fluorophenyl)-3-methylpyrrolidine-3-carboxamide]	31.4	0.02
C[C@@H]1c2ccccc2CCN1C(=O)c1cc(C2CC2)n2nc(-c3ccc(N4CC[C@H](c5nnn[nH]5)C4)cc3F)cc2n1 [Compound 3, (1R)-2-(7-Cyclopropyl-2-{2-fluoro-4-[(3S)-3-(1H-1,2,3,4-tetrazol-5-yl)pyrrolidin-1-yl]phenyl}pyrazolo[1,5-a]pyrimidine-5-carbonyl)-1-methyl-1,2,3,4-tetrahydroisoquinoline]	43	0.063
C[C@@H]1c2ccccc2CCN1C(=O)c1cc(-c2ccc(C(F)(F)F)cc2)n2nc(-c3ccc(N4CC[C@H](C(N)=O)C4)cc3F)cc2n1 [Compound 61, (3S)-1-(3-Fluoro-4-{5-[(1R)-1-methyl-1,2,3,4-tetrahydroisoquinoline-2-carbonyl]-7-[4-(trifluoromethyl)phenyl]pyrazolo[1,5-a]pyrimidin-2-yl}phenyl)pyrrolidine-3-carboxamide]	> 100	0.193
C[C@@H]1c2ccccc2CCN1C(=O)c1cc(C2CC2)n2nc(-c3ccc(N4CC[C@](C)(CC(N)=O)C4)cc3F)cc2n1 (single isomer, unassigned) [Compound 23, 2-[(3*R)-1-(4-{7-Cyclopropyl-5-[(1R)-1-methyl-1,2,3,4-tetrahydroisoquinoline-2-carbonyl]pyrazolo[1,5-a]pyrimidin-2-yl}-3-fluorophenyl)-3-methylpyrrolidin-3-yl]acetamide]	30.3	0.032
CNC(=O)O[C@H]1CCN(c2ccc(-c3cc4nc(C(=O)N5CCc6ccccc6[C@H]5C)cc(C5CC5)n4n3)c(F)c2)C1 [Compound 16, (3S)-1-(4-{7-Cyclopropyl-5-[(1R)-1-methyl-1,2,3,4-tetrahydroisoquinoline-2-carbonyl]-pyrazolo[1,5-a]pyrimidin-2-yl}-3-fluorophenyl)pyrrolidin-3-yl N-methylcarbamate]	> 100	0.11
C[C@@H]1c2ccccc2CCN1C(=O)c1cc(C2CC2)n2nc(-c3ccc(N4CC[C@H](N)C4)cc3F)cc2n1 [Compound 93, (2-(4-((S)-3-aminopyrrolidin-1-yl)-2-fluorophenyl)-7-cyclopropylpyrazolo[1,5-a]pyrimidin-5-yl)((R)-1-methyl-3,4-dihydroisoquinolin-2(1H)-yl)methanone]	13.4	0.039
COc1cc(N2CC[C@H](C(N)=O)C2)nc(F)c1-c1cc2nc(C(=O)N3CCc4ccccc4[C@H]3C)cc(C3CC3)n2n1 [Compound 86, (3S)-1-(5-{7-Cyclopropyl-5-[(1R)-1-methyl-1,2,3,4-tetrahydroisoquinoline-2-carbonyl]-pyrazolo[1,5-a]pyrimidin-2-yl}-6-fluoro-4-methoxypyridin-2-yl)pyrrolidine-3-carboxamide]	49.5	0.161
C[C@@H]1c2ccccc2CCN1C(=O)c1cc(C2CC2)n2nc(-c3ccc(N4CCC(C(N)=O)CC4)cc3F)cc2n1 [Compound 68, 1-(4-{7-Cyclopropyl-5-[(1R)-1-methyl-1,2,3,4-tetrahydroisoquinoline-2-carbonyl]-pyrazolo[1,5-a]pyrimidin-2-yl}-3-fluorophenyl)piperidine-4-carboxamide]	26.6	0.058
